Test results taken from PubChem BioAssay AID588611 (Sanford-Burnham Center for Chemical Genomics, 2011).
Active and inactive are the calls of the source.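 How the source made its calls: active means mean EC50 below 100 µM; inactive means the rest.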

Target: Intestinal-type alkaline phosphatase (Homo sapiens) (UniProt P09923)
Assay: activation of human intestinal alkaline phosphatase – biochemical, luminescence, set 2, selectivity assay for mouse IAP activator project, SAR follow-up (AID 588611)
Details: purified human IAP, CDP-Star luminescence, 30 min

Chain of Intestinal-type alkaline phosphatase (Homo sapiens) (P09923 whole entry, looked up): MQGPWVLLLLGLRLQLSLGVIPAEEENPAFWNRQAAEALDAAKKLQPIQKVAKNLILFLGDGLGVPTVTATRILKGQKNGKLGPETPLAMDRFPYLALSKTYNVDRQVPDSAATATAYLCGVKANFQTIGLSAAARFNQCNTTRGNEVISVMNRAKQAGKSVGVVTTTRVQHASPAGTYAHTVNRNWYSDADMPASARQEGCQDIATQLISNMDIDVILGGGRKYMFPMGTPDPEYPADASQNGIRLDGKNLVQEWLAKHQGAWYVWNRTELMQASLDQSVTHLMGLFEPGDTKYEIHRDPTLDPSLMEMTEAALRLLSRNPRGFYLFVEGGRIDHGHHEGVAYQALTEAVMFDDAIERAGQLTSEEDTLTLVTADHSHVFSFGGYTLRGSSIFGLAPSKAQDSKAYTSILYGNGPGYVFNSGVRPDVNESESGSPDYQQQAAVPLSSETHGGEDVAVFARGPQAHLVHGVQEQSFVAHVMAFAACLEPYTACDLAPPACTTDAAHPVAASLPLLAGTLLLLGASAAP

Row | EC50 | SMILES
1 | 73.7 µM | CN(C)S(=O)(=O)c1ccc(NC(=S)NCCc2cccc(Br)c2)cc1
2 | 53.1 µM | CC1CCN(S(=O)(=O)c2ccc(NC(=S)NCCC(c3ccccc3)c3ccccc3)cc2)CC1
3 | > 100 µM (inactive) | COc1ccc(CNC(=S)Nc2ccc(S(=O)(=O)N3CCCCC3)cc2)cc1OC
4 | 53 µM | O=S(=O)(c1ccc(NC(=S)NCCC(c2ccccc2)c2ccccc2)cc1)N1CCCCC1
5 | > 100 µM (inactive) | O=C(CCc1ccccc1)NC(=S)Nc1cccc(S(=O)(=O)N2CCCC2)c1
6 | > 100 µM (inactive) | CC1CCN(S(=O)(=O)c2ccc(NC(=S)NCC(c3ccccc3)c3ccccc3)cc2)CC1
7 | > 100 µM (inactive) | Cc1ccccc1CNC(=S)Nc1ccc(S(=O)(=O)N(C)C)cc1
8 | 76.8 µM | O=S(=O)(c1ccc(NC(=S)NCc2cccc(F)c2)cc1)N1CCCCC1
9 | > 100 µM (inactive) | CN(C)S(=O)(=O)c1ccc(NC(=S)NCCN2CCCC2)cc1
10 | > 100 µM (inactive) | COc1ccc(CCNC(=S)Nc2ccc(S(=O)(=O)N3CCCCC3)cc2)cc1OC
11 | 68.7 µM | O=S(=O)(c1ccc(NC(=S)NC(c2ccccc2)c2ccccc2)cc1)N1CCCCC1
12 | > 100 µM (inactive) | CN(C)S(=O)(=O)c1ccc(NC(=S)NCCc2cccc(O)c2)cc1
13 | 72.1 µM | O=S(=O)(c1ccc(NC(=S)NCC(c2ccccc2)c2ccccc2)cc1)N1CCCCC1
14 | 58.2 µM | O=S(=O)(c1ccc(NC(=S)NC(c2ccccc2)c2ccccc2)cc1)N1CCCC1
15 | 58.5 µM | O=S(=O)(c1ccc(NC(=S)NCC(c2ccccc2)c2ccccc2)cc1)N1CCCC1
16 | > 100 µM (inactive) | Cc1ccc(S(=O)(=O)N(C)C)cc1NC(=S)NC1CCN(Cc2ccccc2)CC1
17 | > 100 µM (inactive) | Cc1ccc(C)c(NC(=S)Nc2ccc(S(=O)(=O)N3CCCCC3)cc2)c1
18 | 77.2 µM | COc1ccc(CCNC(=S)Nc2ccc(S(=O)(=O)N3CCCCC3)cc2)cc1
19 | 89.6 µM | Cc1ccc(CNC(=S)Nc2ccc(S(=O)(=O)N(C)C)cc2)cc1
20 | 62.2 µM | O=S(=O)(c1ccc(NC(=S)NCCC(c2ccccc2)c2ccccc2)cc1)N1CCCC1
21 | > 100 µM (inactive) | CC1CCN(S(=O)(=O)c2ccc(NC(=S)NC(c3ccccc3)c3ccccc3)cc2)CC1

Further lines, the molecule ahead of its results:

Row | SMILES | EC50
22 | CN(C)S(=O)(=O)c1cccc(NC(=S)NCCN2CCCC2)c1 | > 100 µM (inactive)
23 | CCN(CC)S(=O)(=O)c1ccc(NC(=S)NCCC(c2ccccc2)c2ccccc2)cc1 | 41.3 µM
24 | CN(C)S(=O)(=O)c1ccc(NC(=S)NC(c2ccccc2)c2ccccc2)cc1 | 62.4 µM
25 | CN(C)S(=O)(=O)c1ccc(NC(=S)NCCc2ccccc2)cc1 | > 100 µM (inactive)
26 | CN(C)S(=O)(=O)c1cccc(NC(=S)NCCCn2ccnc2)c1 | > 100 µM (inactive)
27 | CN(CCc1ccccn1)C(=S)Nc1cccc(S(=O)(=O)N(C)C)c1 | > 100 µM (inactive)
28 | CN(C)S(=O)(=O)c1cccc(NC(=S)NCCCN2CCCC2=O)c1 | > 100 µM (inactive)
29 | CCOc1cc(CCNC(=S)Nc2ccc(S(=O)(=O)N(C)C)cc2)ccc1OC | > 100 µM (inactive)
30 | O=c1c2ccccc2[nH]c(=S)n1-c1cccc(S(=O)(=O)N2CCCC2)c1 | > 100 µM (inactive)
31 | Cc1ccc(S(=O)(=O)N(C)C)cc1NC(=S)NC(C)CCC(C)C (centres undefined) | 66.6 µM
32 | CN(CCc1ccccc1)C(=S)Nc1cccc(S(=O)(=O)N(C)C)c1 | > 100 µM (inactive)
33 | CCN(CC)c1ccc(C(=O)NC(=S)Nc2cc(S(=O)(=O)N3CCOCC3)ccc2-n2cncn2)cc1 | > 100 µM (inactive)
34 | CN(C)CC(C)(C)CNC(=S)Nc1cccc(S(=O)(=O)N(C)C)c1 | > 100 µM (inactive)
35 | CN(C)S(=O)(=O)c1cccc(NC(=S)NCCc2cccc(F)c2)c1 | > 100 µM (inactive)
36 | CN(C)S(=O)(=O)c1cccc(NC(=S)NC(c2ccccc2)c2ccccc2)c1 | 34 µM
37 | CN(C)S(=O)(=O)c1cccc(NC(=S)NCc2ccc(Cl)cc2)c1 | 75.5 µM
38 | CCN(CC)CCCNC(=S)Nc1cccc(S(=O)(=O)N(C)C)c1 | > 100 µM (inactive)
39 | CN(C)S(=O)(=O)c1cccc(NC(=S)NCCc2ccccc2)c1 | > 100 µM (inactive)
40 | Cc1ccc(CNC(=S)Nc2cccc(S(=O)(=O)N(C)C)c2)cc1 | > 100 µM (inactive)
41 | CCN(CC)S(=O)(=O)c1ccc(NC(=S)NCC(c2ccccc2)c2ccccc2)cc1 | 55.5 µM
42 | Cc1ccc(S(=O)(=O)N(C)C)cc1NC(=S)NCCCn1ccnc1 | > 100 µM (inactive)
43 | CN(C)S(=O)(=O)c1cccc(NC(=S)NCCc2cccc(Br)c2)c1 | 65 µM

Row | SMILES | EC50
44 | CCN(CC)S(=O)(=O)c1ccc(NC(=S)NC(c2ccccc2)c2ccccc2)cc1 | 63.7 µM
45 | CN(C)S(=O)(=O)c1cccc(NC(=S)NCCc2ccc(Br)cc2)c1 | 84.5 µM
46 | CC1CC(NC(=S)Nc2cccc(S(=O)(=O)N(C)C)c2)CC(C)N1 (centres undefined) | > 100 µM (inactive)
47 | CN(C)S(=O)(=O)c1cccc(NC(=S)NCC(c2ccccc2)c2ccccc2)c1 | 39.4 µM
48 | COc1ccccc1CNC(=S)Nc1ccc(S(=O)(=O)N(C)C)cc1 | > 100 µM (inactive)
49 | CN(C)S(=O)(=O)c1ccc(NC(=S)NCCC(c2ccccc2)c2ccccc2)cc1 | 57.2 µM
50 | O=C(NC(=S)Nc1cc(S(=O)(=O)N2CCOCC2)ccc1O)c1ccco1 | > 100 µM (inactive)
51 | CN(C)S(=O)(=O)c1cccc(NC(=S)NCCc2ccc(F)cc2)c1 | > 100 µM (inactive)
52 | Cc1ccc(S(=O)(=O)N(C)C)cc1NC(=S)NC(=O)C12CC3CC(CC(C3)C1)C2 | > 100 µM (inactive)
53 | CN(C)S(=O)(=O)c1cccc(NC(=S)NCCc2cccc(O)c2)c1 | > 100 µM (inactive)
54 | CN(C)S(=O)(=O)c1cccc(NC(=S)NC(C)(C)CC(C)(C)C)c1 | 70.7 µM
55 | O=C(NC(=S)Nc1cc(S(=O)(=O)N2CCOCC2)ccc1N1CCOCC1)c1ccco1 | > 100 µM (inactive)
56 | CC(CCc1ccccc1)NC(=S)Nc1cccc(S(=O)(=O)N(C)C)c1 (centres undefined) | 69.4 µM
57 | CN(C)S(=O)(=O)c1ccc(NC(=S)NCc2ccc(Cl)cc2)cc1 | > 100 µM (inactive)
58 | COc1cccc(CNC(=S)Nc2ccc(S(=O)(=O)N(C)C)cc2)c1 | > 100 µM (inactive)
59 | CN(C)S(=O)(=O)c1cccc(NC(=S)NCCC(=O)N2CCCC2)c1 | > 100 µM (inactive)
60 | CN(C)CCCNC(=S)Nc1cccc(S(=O)(=O)N(C)C)c1 | > 100 µM (inactive)
61 | CC(CNC(=S)Nc1cccc(S(=O)(=O)N(C)C)c1)N1CCN(c2ccccc2)CC1 (centres undefined) | > 100 µM (inactive)
62 | COc1cccc(CCNC(=S)Nc2cccc(S(=O)(=O)N(C)C)c2)c1 | 82 µM
63 | Cc1ccc(S(=O)(=O)N(C)C)cc1NC(=S)NC(C)CCCC(C)C (centres undefined) | 58 µM
64 | CN(C)S(=O)(=O)c1cccc(NC(=S)NCCC(c2ccccc2)c2ccccc2)c1 | > 100 µM (inactive)
